Source: patent US20240293563A1, “GLP-1 RECEPTOR LIGAND MOIETY CONJUGATED OLIGONUCLEOTIDES AND USES THEREOF” (priority 2017, published 2024)
Square brackets hold non-standard residues; d marks the D form. Side chains are listed from the residue outwards. Ends that are not written are not given here. 5'‑hexylamino oligonucleotide ISIS 786434 = not defined here; Aib = CC(C)(N)C(=O)O; Mpa = O=C(O)CCS

Legend:
[1] = tested on: MALAT1; assay: MALAT1 inhibition in isolated islets 72 hrs after single s.c. dose, various linkers; format: in vivo, mouse
[2] = tested on: MALAT1 mRNA; assay: Dose dependent antisense inhibition of MALAT1 in hGLP1R-HEK cells; format: cell-based, human; settings: approximately 24 hrs, qRT-PCR normalized to RPLP0
Description: The hGLP1R-HEK cell line was generated by expressing hGLP1R in Flp-IN™ 293 cells. Cultured hGLP1R-HEK cells were seeded at a density 30,000 cells per well in 96 well plates and saline, 100 nM or 10 μM of unconjugated parent antisense oligonucleotide ISIS 556089 targeted to MALAT1 described above or ISIS 776102 (nucleobase sequence: […]) (SEQ ID NO: 64) targeted to FOXO1, or corresponding GLP-1 peptide conjugated antisense oligonucleotides (ISIS 816385 targeted to MALAT1 described above or ION 913193 targeted to FOXO1 described above) for approximately 24 hrs. After the treatment period, cells were harvested, the mRNA isolated and adjusted to total RNA content as measured by nanadrop UV-Vis spectrophotometer. MALAT1 or FOXO1 mRNA levels were measured by quantitative real-time PCR and normalized to the mRNA levels of the house keeping gene (RPLP0) in the same samples. Human MALAT1 mRNA levels were measured using gene expression assays HS00273907 and FOXO1 mRNA levels were measured using assay Hs01054576 (Applied Biosystems). The mRNA level of the house keeping gene RPLP0 was measured using a primer probe set with forward sequence […] CAT […] (SEQ ID NO: 66), reverse sequence […] (SEQ ID NO: 67). […]
After the treatment period cells were harvested, mRNA isolated and MALAT1 mRNA levels measured by quantitative real-time PCR using the primer probe set as described herein (Example 7). […]

[3] = tested on: MALAT1; assay: MALAT1 expression in liver by in situ hybridization; format: in vivo, mouse
Description: Tissues were prepared as described herein, Example 11. The in situ mRNA amplification and labelling process was performed on the Ventana Discovery ULTRA, an Automated ISH platform(Ventana Medical System, Inc) using the RNAscope® VS Assay based on Advanced Cell Diagnostics (ACD). Customized probes were obtained from ACD for the detection of MALAT1 mRNA, and various parameters were tested to optimize the novel RNAscope method for ISH. The signal was amplified using multiple steps, followed by labeled probes and detected using the RNAscope® 2.5 VS Reagent Kit-RED. […] All animals were sacrificed approximately 72 hrs after last, and liver harvested for ex vivo analysis of MALAT1 expression by in situ hybridization. Tissues were prepared, and in situ hybridization performed, as described herein, Example 12.

[4] = tested on: MALAT1; assay: In situ hybridization of MALAT1 (QuantiGene ViewRNA) in mouse tissues after intravenous ASO; format: in vivo
Description: NO: 63) or a GLP-1 conjugated MALAT1 ASO (ISIS 816385) described in Example 1 at concentrations of 1.8. 0.6, or 0.2 μmol/kg. […] MALAT1 expression was detected using the QuantiGene ViewRNA tissue assay (Affymetrix, cat. No. QVT0011). Species-specific MALAT1 probes were purchased from Affymetrix (cat. No. VB-11110-01/mouse; VF1-13963/monkey). In brief, mouse tissues were fixed in 10% neutral-buffered formalin and embedded into paraffin and sectioned into […]. After deparaffinization, the tissue slides were boiled in Affymetrix pretreatment solution for 10-30 minutes followed by treatment with protease at 40° C. for 10 to 40 minutes depending on tissue. The MALAT1 RNA probe was used at a 1:40 dilution and was incubated with sample at 40° C. for 120 minutes. After washing, the MALAT1 RNA/probe complex was hybridized with preamplifier, amplifier, and AP-oligonucleotides at 40° C. for 25, 15, and 15 minutes, respectively. After removal of free AP oligonucleotide by washing in PBS, the slide was incubated with Fast Red substrate at room temperature for 30 minutes. The tissue images were acquired using an Aperio scanner. Hung et al., 2013 Nuc Acid Ther. 369-78. To determine a dose response of a GLP-1 conjugated MALAT1 ASO (ISIS 816385) described in Example 1 on pancreatic MALAT1 expression, male C57BL/6 mice fed a chow diet received a single intravenous injection of ISIS 816385 or an unconjugated MALAT1 ASO (ISIS 556089) described above at concentrations of 0.2, 0.06, and 0.02 μmol/kg. MALAT1 expression was detected using the QuantiGene ViewRNA tissue assay described above.

[5] = tested on: MALAT1; assay: MALAT1 expression in pancreas by in situ hybridization (RNAscope); format: in vivo, mouse; settings: 2 μmol/kg, 72 hrs after last dose
Description: Female C57BL/6Crl mice were assigned to five treatment groups. […] All animals were sacrificed approximately 72 hrs after last dose, and pancreas harvested for ex vivo analysis of uptake of antisense oligonucleotides by immunohistochemistry.
Female C57BL/6Crl mice were assigned to five treatment groups as described herein (Example 11) All animals were sacrificed approximately 72 hrs after last dose, and pancreas harvested for ex vivo analysis of MALAT1 expression by in situ hybridization.
The in situ mRNA amplification and labelling process was performed on the Ventana Discovery ULTRA, an Automated ISH platform(Ventana Medical System, Inc) using the RNAscope® VS Assay based on Advanced Cell Diagnostics (ACD). Customized probes were obtained from ACD for the detection of MALAT1 mRNA, and various parameters were tested to optimize the novel RNAscope method for ISH. The signal was amplified using multiple steps, followed by labeled probes and detected using the RNAscope® 2.5 VS Reagent Kit-RED. Stained slides were analyzed under a standard bright-field microscope.

ISIS 816385 (H[Aib]EGTFTSDVSSYLEEQAAKEFIAWLVKGGPSSGAPPPSC([Mpa-5'‑hexylamino oligonucleotide ISIS 786434])-NH2; reading uncertain; also: Cys40 joined to the linker by a disulfide)
In vivo ED50 ([1]; MALAT1 in isolated islets, single subcutaneous injection): 0.0088 µmol/kg
% MALAT1 inhibition ([1]; isolated islets, female C57BL/6Crl mice, single subcutaneous injection of 0.01 μmol/kg): 41%
IC50 [2]: 20 nM
Liver MALAT1 expression ([3]; 2 μmol/kg intravenous, compared to vehicle control): reduced compared to vehicle control
Liver MALAT1 expression in hepatocytes ([3]; 2 μmol/kg subcutaneous, compared with ISIS 556089): reduced in hepatocytes of animals treated with ISIS 816385 to a greater extent
effect in liver (MALAT1 in situ hybridization) ([4]; Study 2, single intravenous injection, any of the doses 0.2, 0.06, 0.02 μmol/kg): No observable effect
MALAT1 staining in beta islet cells of the pancreas (in situ hybridization) ([4]; Study 2, single intravenous injection, at the 0.2 μmol/kg dose and 0.06 μmol/kg dose): reduced MALAT1 staining
MALAT1 expression in pancreatic beta islet cells (in situ hybridization) ([4]; male C57BL/6 mice, 2 intravenous injections of 1.8, 0.6 or 0.2 μmol/kg, 72 hours after final injection): reduced MALAT1 expression
MALAT1 expression in the pancreatic islet of Langerhans ([5]; subcutaneous or intravenous (ISIS 556089 subcutaneous only)): reduced
MALAT1 expression in the exocrine tissue of pancreas ([5]; subcutaneous or intravenous): not in the exocrine tissue
